Where a SMILES comes first, the peptide text is derived from it. [ ]: non-standard residue; d: D form. The star is where a group is joined. Pro(3S-CH2tBu) = CC(C)(C)C[C@H]1CCN[C@@H]1C(=O)O; X4 = CN(Cc1ccccc1)C(=O)/C=C/C(=O)N(CC(=O)O)N*; X3 = O=C(O)CN(N*)C(=O)COc1c(F)cccc1F; Quinaldoyl = O=C(c1ccc2ccccc2n1)*
Molecular target: T1, Caspase-2 (Homo sapiens, UniProt P42575)
T1 construct: the Caspase-2 and Caspase-3 are human recombinant active enzymes; purchased Enzo Life ALX-201-057-U100
T1 sequence (P42575 170-325 limits assumed): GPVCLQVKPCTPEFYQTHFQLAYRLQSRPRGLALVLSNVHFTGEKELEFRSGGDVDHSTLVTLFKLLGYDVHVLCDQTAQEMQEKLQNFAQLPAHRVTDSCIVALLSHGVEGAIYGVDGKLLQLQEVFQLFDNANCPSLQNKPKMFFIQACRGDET
T1 sequence (P42575 348-452 limits assumed): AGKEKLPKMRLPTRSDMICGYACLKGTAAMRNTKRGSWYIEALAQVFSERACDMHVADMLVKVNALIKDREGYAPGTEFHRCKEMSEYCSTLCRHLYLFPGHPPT
Experiment: Caspase-2 inhibition assay for irreversible inhibitors (kinact/KI, continuous method)
Type: biochemical
Conditions: for Selectivity for Caspase 2: comparison of kinact/KI ratios regarding caspase 2 and 3
Protocol: The efficiency of the comparative compound Δ2Me-TRP601, that is an already known group II Caspase inhibitor (inhibitor of Caspase-2, Caspase-3 and Caspase-7), has been assessed by a similar protocol described in Chauvier et al., 2011 Cell Death Dis 2011, 2:e203.
In this example, the Caspase-2 and Caspase-3 are human recombinant active enzymes that are respectively provided by Enzo Life® (ALX-201-057-U100) and R&D Systems® (707-C3-010/CF).
Caspase-2 is used at a final concentration of 0.1 nM in a “Caspase-2 buffer” containing 20 mM HEPES (pH 7.4), 5 mM DTT, 2 mM EDTA, 0.1% CHAPS and 800 mM succinate. Caspase-3 is used at a final concentration of 0.5 nM in a “Caspase-3 buffer” containing 20 mM HEPES (pH 7.4), 0.1% CHAPS, 5 mM DTT, and 2 mM EDTA.
The peptide substrates used for the enzymatic activity measurements are Ac-DEVD-AMC and Ac-VDVAD-AMC commercialized by EnzoLife® (respectively referenced ALX-260-031-M005 and ALX-260-060-M005). They are fluorogenic due to the presence of their AMC (7-amino-4-methylcoumarin) end group. The releasing of AMC enables to follow the enzymatic activity in fluorescence unit RFU over time in a 96-wells microplate.
The fluorescence values are measured at 37° C. with a spectrofluorometer with a microplate reader BMG FLUOstar OPTIMA. This apparatus is driven by the software Biolise® and is equipped with thermoelectric cooling device by Peltier effect. The mathematical analyses of the experimental data are done with the software Kaleidagraph®.
The inhibitory properties of the tested compounds are evaluated by the determination of the kinact/KI ratio regarding either Caspase-2 or Caspase-3 wherein: • kinact is the maximal inactivation rate constant, and • KI is the dissociation constant according to:
Said ratio is measured according to the continuous method (Allison R D. Curr Protoc Protein Sci. 2001 May; Chapter 3:Unit 3.5.; Chauvier et al., 2011 Cell Death Dis 2:e203; Tan et al., J Med Chem 2015, […]).
Briefly, Caspases activities were determined by monitoring the hydrolysis of fluorogenic substrates (λexc=355 nm, λem=460 nm) as a function of time, in the presence of untreated Caspases (control) or Caspases that had been incubated with a test compound, for 30 min minimum at 37° C. using a BMG Fluostar microplate reader (black 96-well microplates) and the initial velocity (V0) was determined from the linear portion of the progress curve.
Substrates and compounds were previously dissolved in DMSO at 10 mM, with the final solvent concentration kept at lower 4% (v/v). V0, relative velocities, KM and IC50 were determined from experimental data using Mars data Analysis 2.0 and Kaleidagraph softwares.
Inhibitor binding affinity (dissociation constant, KI) and first-order rate constant (k3) parameters were determined for Caspase-2 and Caspase-3 using the progress curve method. The ratio k3/KI was obtained by fitting the experimental data to the equations (F.U., fluorescence unit): […]
A continuous method of determination of the kinact/KI ratio was used for evaluating the inhibitory activity of the tested compounds against Caspase-2 and Caspase-3.
The reaction mixture is prepared by letting the enzyme and the buffer incubate at 37° C.
The tested inhibitory compounds are prepared at different concentrations (¼ IC50; ½ IC50; IC50; 2 IC50; 4 IC50) and put in the microplate.
Then the reaction mixture comprising the enzyme, the buffer and the substrate is rapidly added in the wells.
The activities of the enzyme are measured between 45 and 60 minutes.
The RFU (Relative Fluorescence Units)=f(times) curves are traced for each concentration of tested molecule according to the following equation: ((((−V0)*(exp(−kobs*m0)))+V0)/kobs*)+RFU0
in which: • V0 corresponds to the initial rate (RFU·s^−1) in the concentration of 0 of the tested inhibitory compound; • kobs is the inactivation rate constant; • RFU0 is the fluorescence value at t=0 min; and • m0 is the variable i.e. the inhibitor concentration.

SMILES | type of inhibition (irreversible) | Selectivity for Caspase 2 | k3/KI Casp2 (human recombinant Caspase-2 0.1 nM, 37° C.) | Selectivity ratio (C2/C3) (ratio of k3/KI Casp2 to Casp3)
CC(C)[C@H](NC(=O)c1ccc2ccccc2n1)C(=O)N[C@@H](CC(=O)O)C(=O)N[C@H](C(=O)N1CC[C@H](CC(C)(C)C)[C@H]1C(=O)NN(CC(=O)O)C(=O)COc1c(F)cccc1F)C(C)C [Compound 4, (S)-4-(((S)-1-((2S,3S)-2-(2-(carboxymethyl)-2-(2-(2,6-difluorophenoxy)acetyl)hydrazinecarbonyl)-3-neopentylpyrrolidin-1-yl)-3-methyl-1-oxobutan-2-yl)amino)-3-((S)-3-methyl-2-(quinoline-2-carboxamido)butanamido)-4-oxobutanoic acid] (Quinaldoyl-VDV[Pro(3S-CH2tBu)]-X3) | irreversible inhibitor | yes |  | 
CC(C)[C@H](NC(=O)[C@H](CC(=O)O)NC(=O)C(=O)Nc1ccccc1C(C)(C)C)C(=O)N1CC[C@H](CC(C)(C)C)[C@H]1C(=O)NN(CC(=O)O)C(=O)COc1c(F)cccc1F [Compound 6, (S)-3-(2-((2-(tert-butyl)phenyl)amino)-2-oxoacetamido)-4-(((S)-1-((2S,3S)-2-(2-(carboxymethyl)-2-(2-(2,6-difluorophenoxy)acetyl)hydrazinecarbonyl)-3-neopentylpyrrolidin-1-yl)-3-methyl-1-oxobutan-2-yl)amino)-4-oxobutanoic acid] | irreversible inhibitor | yes |  | 
CC(C)[C@H](NC(=O)c1ccc2ccccc2n1)C(=O)N[C@@H](CC(=O)O)C(=O)N[C@H](C(=O)N1CC[C@H](CC(C)(C)C)[C@H]1C(=O)N[C@@H](CC(=O)O)C(=O)COc1c(F)cccc1F)C(C)C (single isomer, unassigned) [Compound 2 enantiomer a] |  |  | 1 894 076 M^−1 · s^−1 | 721
CC(C)[C@H](NC(=O)c1ccc2ccccc2n1)C(=O)N[C@@H](CC(=O)O)C(=O)N[C@H](C(=O)N1CC[C@H](CC(C)(C)C)[C@H]1C(=O)NN(CC(=O)O)C(=O)/C=C/C(=O)N(C)Cc1ccccc1)C(C)C [Compound 5, (S)-4-(((S)-1-((2S,3S)-2-(2-((E)-4-(benzyl(methyl)amino)-4-oxobut-2-enoyl)-2-(carboxymethyl)hydrazinecarbonyl)-3-neopentylpyrrolidin-1-yl)-3-methyl-1-oxobutan-2-yl)amino)-3-((S)-3-methyl-2-(quinoline-2-carboxamido)butanamido)-4-oxobutanoic acid] (Quinaldoyl-VDV[Pro(3S-CH2tBu)]-X4) | irreversible inhibitor | yes |  | 
